# Structures can show the parent of a compound that is named as a salt. Where two headings read alike, the source gives them in different places.
# Tests used:
# [1] = system: NCI-H292 lung cancer cells; assay: FDA drug screening, complete media vs cholesterol-free media without statin (TABLE 1); format: cell-based, human
# [2] = system: NCI-H292 lung cancer cells; assay: FDA drug screening, complete media vs cholesterol-free media with simvastatin (TABLE 2); format: cell-based, human
# [3] = Complete minus Cholesterol-free, greater than 0 enhanced anti-cancer activity, about 0 neutral, below 0 antagonist
# [4] = NCI-H292 cells, FDA drug library screen, cholesterol-free media without statin
# [5] = NCI-H292 cells, FDA drug library screen, complete media
# [6] = NCI-H292 cells, cholesterol-free media with simvastatin 0.04 μM, FDA drug library screen (TABLE 2)
# [7] = NCI-H292 cells, complete media, FDA drug library screen (TABLE 2)
# [8] = complete media minus cholesterol-free media + simvastatin (0.04 μM), >0 enhanced anti-cancer activity, about 0 neutral, <0 antagonist
# [9] = Complete minus Cholesterol-free, […]
# [10] = NCI-H292 cells, FDA drug library screen, cholesterol-free media with simvastatin 0.04 μM
# [11] = complete media minus cholesterol-free media + simvastatin, […]
# [12] = Complete minus Cholesterol-free, >0 enhanced anti-cancer activity, about 0 neutral, <0 antagonist
# [13] = NCI-H292 cells, cholesterol-free media without statin, FDA drug library screen
# [14] = NCI-H292 cells, complete media, FDA drug library screen
# [15] = complete media vs cholesterol-free media + simvastatin (0.04 μM), >0 enhanced anti-cancer activity, about 0 neutral, <0 antagonist
# [16] = complete media minus cholesterol-free media + simvastatin, >0 enhanced anti-cancer activity, about 0 neutral, <0 antagonist
# [17] = Complete minus Cholesterol-free, greater than 0 enhanced anti-cancer activity, about 0 neutral, below 0 antagonists
# [18] = NCI-H292 cells in cholesterol-free media without statin
# [19] = NCI-H292 cells in complete media
# [20] = NCI-H292 cells, drug in cholesterol-free media with simvastatin 0.04 μM
# [21] = NCI-H292 cells, drug in complete media
# [22] = complete vs cholesterol-free media, […]
# [23] = complete media minus cholesterol-free media + simvastatin (0.04 μM), […]
# [24] = NCI-H292 cells, cholesterol-free media without statin
# [25] = complete vs cholesterol-free media, greater than 0 enhanced anti-cancer activity, about 0 neutral, below 0 antagonists
compound,measurement,setting,value
C#Cc1cccc(Nc2ncnc3cc(OCCOC)c(OCCOC)cc23)c1 [Erlotinib],Difference,[1]; [3],−0.17
same,Cholesterol-free,[1]; [4],0.6096
same,Complete,[1]; [5],0.4429
same,Cholesterol-free media + simvastatin (0.04 μM),[2]; [6],0.5219
same,Complete Media,[2]; [7],0.4599
same,Difference,[2]; [8],−0.06
Isoconazole (nitrate),Difference,[1]; [9],−0.15
same,Cholesterol-free,[1]; [4],1.53
same,Complete,[1]; [5],1.383
same,Cholesterol-free media + simvastatin (0.04 μM),[2]; [10],0.3001
same,Complete Media,[2]; [5],0.7337
same,Difference,[2]; [11],0.43
O=c1c(O[C@@H]2O[C@H](CO)[C@H](O)[C@H](O)[C@H]2O)c(-c2ccc(O)c(O)c2)oc2cc(O)cc(O)c12 [Hyperoside],Difference,[1]; [12],−0.03
same,Cholesterol-free,[1]; [13],0.9192
same,Complete,[1]; [14],0.8906
same,Cholesterol-free media + simvastatin (0.04 μM),[2]; [10],0.9665
same,Complete Media,[2]; [5],0.8144
same,Difference,[2]; [15],−0.15
CCCCCCCCCCCCCCCC[N+](C)(C)CCN(Cc1ccc(OC)cc1)c1ncccn1.[Br-] [Thonzonium (bromide)],Difference,[1]; [3],−0.13
same,Cholesterol-free,[1]; [4],0.179
same,Complete,[1]; [5],0.05155
same,Cholesterol-free media + simvastatin (0.04 μM),[2]; [10],0.2494
same,Complete Media,[2]; [5],0.5638
same,Difference,[2]; [16],0.31
COc1cc(O)c(C(=O)Nc2nc(C(=O)NCCN(C(C)C)C(C)C)cs2)cc1OC,Difference,[1]; [17],−0.47
same,Cholesterol-free,[1]; [18],1.419
same,Complete,[1]; [19],0.9453
same,Cholesterol-free media + simvastatin (0.04 μM),[2]; [20],1.16
same,Complete Media,[2]; [21],0.9105
same,Difference,[2]; [15],−0.25
NC[C@H](O)c1ccc(O)c(O)c1 [Norepinephrine],Difference,[1]; [12],−0.02
same,Cholesterol-free,[1]; [13],0.981
same,Complete,[1]; [14],0.9634
same,Cholesterol-free media + simvastatin (0.04 μM),[2]; [6],0.9481
same,Complete Media,[2]; [7],0.884
same,Difference,[2]; [8],−0.06
COc1cc(N)c(Cl)cc1C(=O)NC1CCN(CCCOc2ccc(F)cc2)CC1OC (stereo not drawn) [Cisapride],Difference,[1]; [17],−0.91
same,Cholesterol-free,[1]; [18],1.595
same,Complete,[1]; [19],0.6865
same,Cholesterol-free media + simvastatin (0.04 μM),[2]; [10],1.001
same,Complete Media,[2]; [5],0.8916
same,Difference,[2]; [15],−0.11
CN(C)[C@@H]1C(O)=C(C(N)=O)C(=O)[C@@]2(O)C(O)=C3C(=O)c4c(O)c(NC(=O)CN5CCCC5)cc(F)c4C[C@H]3C[C@@H]12 [Eravacycline (dihydrochloride)],Cholesterol-free,[1]; [13],0.2139
same,Complete,[1]; [14],0.4019
same,Difference,[1]; [22],0.19
same,Cholesterol-free media + simvastatin (0.04 μM),[2]; [6],0.8088
same,Complete Media,[2]; [7],0.7999
same,Difference,[2]; [23],−0.01
Cc1nc2c([nH]1)-c1ccccc1N(C(=O)c1ccc(NC(=O)c3ccccc3-c3ccccc3)cc1)CC2 [Conivaptan (hydrochloride)],Difference,[1]; [17],−0.65
same,Cholesterol-free,[1]; [18],1.641
same,Complete,[1]; [19],0.989
same,Cholesterol-free media + simvastatin (0.04 μM),[2]; [10],1.147
same,Complete Media,[2]; [5],1.002
same,Difference,[2]; [15],−0.15
CN1CCC(=C2c3ccccc3CCc3sccc32)CC1 [Pizotifen],Cholesterol-free,[1]; [24],1.127
same,Complete,"[1]; NCI-H292 cells, complete media",0.7811
same,Difference,[1]; [25],−0.35
same,Cholesterol-free media + simvastatin (0.04 μM),[2]; [10],0.849
same,Complete Media,[2]; [5],1.216
same,Difference,[2]; [16],0.37
C[C@]12C=CC(=O)N[C@@H]1CC[C@@H]1[C@@H]2CC[C@]2(C)[C@@H](C(=O)Nc3cc(C(F)(F)F)ccc3C(F)(F)F)CC[C@@H]12 [Dutasteride],Cholesterol-free,[1],0.7204
same,Complete,[1],0.8443
same,Difference,[1],0.12
same,Cholesterol-free media + simvastatin (0.04 μM),[2],1.633
same,Complete Media,[2],1.205
same,Difference,[2],−0.43
C=CCN1CCc2nc(N)sc2CC1 [Talipexole dihydrochloride],Difference,[1]; [3],−0.09
same,Cholesterol-free,[1]; [4],1.016
same,Complete,[1]; [5],0.9282
same,Cholesterol-free media + simvastatin (0.04 μM),[2]; [20],1.333
same,Complete Media,[2]; [21],1.079
same,Difference,[2]; [15],−0.25
Cc1ncc(C[n+]2csc(CCO)c2C)c(N)n1 [Thiamine monochloride],Difference,[1]; [12],−0.23
same,Cholesterol-free,[1]; [24],0.9486
same,Complete,"[1]; NCI-H292 cells, complete media",0.7138
same,Cholesterol-free media + simvastatin (0.04 μM),[2]; [10],1.042
same,Complete Media,[2]; [5],0.9007
same,Difference,[2]; [15],−0.14
COc1cc2c3cc1Oc1c(OC)c(OC)cc4c1[C@@H](Cc1ccc(O)c(c1)Oc1ccc(cc1)C[C@@H]3N(C)CC2)N(C)CC4 [Berbamine (dihydrochloride)],Cholesterol-free,[1]; [24],1.782
same,Complete,"[1]; NCI-H292 cells, complete media",1.401
same,Difference,[1]; [22],−0.38
same,Cholesterol-free media + simvastatin (0.04 μM),[2]; [10],0.2857
same,Complete Media,[2]; [5],1.04
same,Difference,[2]; [11],0.75
CC(C)NCC(O)c1ccc(NS(C)(=O)=O)cc1 (stereo not drawn) [Sotalol (hydrochloride)],Cholesterol-free,[1]; [24],1.39
same,Complete,"[1]; NCI-H292 cells, complete media",0.9629
same,Difference,[1]; [25],−0.43
same,Cholesterol-free media + simvastatin (0.04 μM),[2]; [10],0.8339
same,Complete Media,[2]; [5],0.7583
same,Difference,[2]; [15],−0.08
CCCCNC(=O)NS(=O)(=O)c1ccc(C)cc1 [Tolbutamide],Difference,[1]; [12],−0.25
same,Cholesterol-free,[1]; [24],1.099
same,Complete,"[1]; NCI-H292 cells, complete media",0.8474
same,Cholesterol-free media + simvastatin (0.04 μM),[2]; [20],1.123
same,Complete Media,[2]; [21],0.9256
same,Difference,[2]; [15],−0.20
Cc1nnc(C(=O)NC(C)(C)c2nc(C(=O)NCc3ccc(F)cc3)c(O)c(=O)n2C)o1 [Raltegravir (potassium salt)],Cholesterol-free,[1],1.332
same,Complete,[1],0.9188
same,Difference,[1],−0.41
same,Cholesterol-free media + simvastatin (0.04 μM),[2],0.8687
same,Complete Media,[2],0.9051
same,Difference,[2],0.04
Cc1cc(NC(=O)C2=C(O)c3ccccc3S(=O)(=O)N2C)no1 [Isoxicam],Difference,[1]; [17],−0.71
same,Cholesterol-free,[1]; [18],1.72
same,Complete,[1]; [19],1.015
same,Cholesterol-free media + simvastatin (0.04 μM),[2]; [20],1.282
same,Complete Media,[2]; [21],1.064
same,Difference,[2]; [15],−0.22
CC(C)NCC(O)COc1ccc(CCOCC2CC2)cc1 (stereo not drawn) [Betaxolol (hydrochloride)],Difference,[1]; [12],−0.02
same,Cholesterol-free,[1]; [13],0.8929
same,Complete,[1]; [14],0.8739
same,Cholesterol-free media + simvastatin (0.04 μM),"[2]; NCI-H292 cells, cholesterol-free media with simvastatin 0.04 μM, cell growth value in FDA drug screen",1.08
same,Complete Media,"[2]; NCI-H292 cells, complete media, cell growth value in FDA drug screen",1.11
same,Difference,[2]; [16],0.03
Nc1nc(F)nc2c1ncn2[C@@H]1O[C@H](CO)[C@@H](O)[C@@H]1O [Fludarabine],Difference,[1]; [9],−0.15
same,Cholesterol-free,[1]; [4],1.174
same,Complete,[1]; [5],1.022
same,Cholesterol-free media + simvastatin (0.04 μM),[2]; [6],1.255
same,Complete Media,[2]; [7],1.187
same,Difference,[2]; [23],−0.07
CC(=O)O[C@H]1C[C@@H]2CC[C@@H]3[C@H](CC[C@@]4(C)[C@H]3C[C@H]([N+]3(C)CCCCC3)[C@@H]4OC(C)=O)[C@@]2(C)C[C@@H]1N1CCCCC1.[Br-] [Vecuronium (bromide)],Cholesterol-free,[1],1.045
same,Complete,[1],0.9438
same,Difference,[1],−0.10
same,Cholesterol-free media + simvastatin (0.04 μM),[2],0.9802
same,Complete Media,[2],0.9534
same,Difference,[2],−0.03
COc1cc(Nc2ncc(F)c(Nc3ccc4c(n3)N(COP(=O)(O)O)C(=O)C(C)(C)O4)n2)cc(OC)c1OC [Fostamatinib Disodium],Difference,[1]; [12],−0.20
same,Cholesterol-free,[1]; [24],1.102
same,Complete,"[1]; NCI-H292 cells, complete media",0.9004
same,Cholesterol-free media + simvastatin (0.04 μM),[2]; [10],0.7811
same,Complete Media,[2]; [5],0.6698
same,Difference,[2]; [15],−0.11

# From patent publication US20250144067A1, “PERSONALIZED STARVATION THERAPY FOR CANCER” (Faeth Therapeutics, Inc., priority 2021, published 2025)
